Source: patent US11691992B2 (Anacor Pharmaceuticals, Inc., priority 2017, dated 2023)

test system: IL3000 T. congolense (drug sensitive) strain; assay: In vitro Alamar Blue 72 h drug sensitivity assay for T. congolense; type: cell-based; conditions: Trypanosoma congolense; bloodstream form, 69 h + 3 h resazurin, 34° C.; classes A-C; read-out: IC50: I Org. Growth T. congolense IL-3000, 3 d
Experimental: Example 106. In Vitro Alamar Blue 72 h Drug Sensitivity Assay for T. congolense
Compounds were tested in vitro for chemotherapeutic potency against the IL3000 T. congolense (drug sensitive) strain, using the Alamar Blue assay with several modifications. Test compounds were prepared as 10 mg/mL DMSO stocks for each assay run. Compounds were assayed in at least three separate, independent test runs and an 11-point dilution curve was used to determine the IC50 values. Bloodstream form trypanosomes were supported in HMI media containing 20% bovine serum and were incubated with test compounds for 69 h at 34° C. in a humidified atmosphere containing 5% CO2. Thereafter, 10 μL of Resazurin dye (12.5 mg in 100 mL of phosphate buffered saline, Sigma-Aldrich, Buchs, Switzerland) were added for an additional 3 h. Plates were then read using a fluorescent plate reader (Spectramax, Gemini XS, Bucher Biotec, Basel, Switzerland) using an excitation wavelength of 536 nm and an emission wavelength of 588 nm. Data points were averaged to generate sigmoidal dose-response curves and IC50 values were determined using Softmax Pro 5.2 software.

First: CCCc1c(C(=O)Nc2ccc3c(c2)B(O)OC3)nnn1-c1ccccn1 [Example 50, N-(1-hydroxy-1,3-dihydrobenzo[c][1,2]oxaborol-6-yl)-5-propyl-1-(pyridin-2-yl)-1H-1,2,3-triazole-4-carboxamide]
Second: CCc1c(C(=O)Nc2ccc3c(c2)B(O)OC3)nnn1-c1ccccn1 [Example 49, 5-ethyl-N-(1-hydroxy-1,3-dihydrobenzo[c][1,2]oxaborol-6-yl)-1-(pyridin-2-yl)-1H-1,2,3-triazole-4-carboxamide]
The IC50 of the first is higher: 0.1 to 0.3 µM for the first, less than 0.1 µM for the second.

test system: luciferase-expressing L. major parasites developing intracellularly inside RAW 264.7 macrophages; assay: Leishmania major intracellular amastigote assay in RAW 264.7 macrophages (luciferase); type: cell-based; conditions: RAW264.7, 96 hours, read-out: IC50: I Org. intracellular amastigote Growth L. major, 4 d
Description: Example 107. Assay for Leishmania major Intracellular Amastigote Assay in RAW 264.7 Macrophages
The intracellular amastigote assay is a microtiter plate drug sensitivity assay that uses the activity of luciferase as a measure of proliferation of luciferase-expressing L. major parasites developing intracellularly inside RAW 264.7 macrophages in the presence of antileishmanial drugs or experimental compounds. (Buckner, F. S., and A. J. Wilson. Am J Prop Med Hyg, 2005, 72(5): 600-605.) As the activity of luciferase and its associated luminescence after addition of the substrate, luciferin, is relative to parasite growth, a test compound that inhibits the growth of the parasite will result in a lower luminescence. The luciferase-expressing L. major parasite used in this assay is genetically modified by adding the luciferase coding region to the pLEXSY-hyg2 vector (Jena Biosciences). The luciferase expression construct was created by digesting the luciferase coding region (1.66 kbp) of pGL3-Basic (Promega) by using two restriction enzymes, NcoI/EagI, followed by electrophoretic separation of the luciferase coding region on a 1% agarose gel. The luciferase coding region was then ligated into pLEXSY-hyg2 vector (Jena Biosciences) which had previously been digested with NcoI/NotI. The vector was linearized with SwaI and subsequently gel purified prior to transfection into L. major parasites. Transfections were carried out by electroporation at 480V, 13Ω, and 500 μF (0.4 mL of 1×10^8 parasites/mL, and 0.1 mL of 10 μg DNA). Selection for transfectants was then carried out using hygromycin B (100 μg/mL). RAW 264.7 macrophages were cultured in DMEM media (ATCC Cat #30-2002) supplemented with heat-inactivated 10% FBS (Invitrogen Cat #10438-034). To begin the assay, macrophages were harvested from culture by removing all spent media, adding in 10 mL fresh media, scraping cells, and counted using Trypan Blue. The cells were resuspended in DMEM/10% HIFBS media at 2.0×10^5 cells/mL, and then dispensed in a volume of 50 μL to yield a final concentration of 10,000 macrophages/well in 384 well tissue-culture treated sterile white plates (Nunc Cat #12-565-343) using a Tecan EVO Freedom robotics system. The plates were then incubated at 37° C. overnight in 5% CO2 atmosphere for 24 hours. After overnight incubation, the media was removed from each well using the Tecan EVO Freedom robot, and L. major promastigotes were added to each well and allowed to invade the RAW macrophages. Promastigotes were cultured in Schneider's medium (Invitrogen Cat #11720-067) supplemented with 20% heat inactivated FBS. Metacyclic stage promastigotes provide the best invasion for this assay, and cultures should be grown to increase the percentage of metacyclic promastigotes for best results. Promastigotes were harvested from culture, counted, suspended at 2×10^6 promastigotes/mL in DMEM/HIFBS media, and 100,000 promastigotes were dispensed per well in a volume of 50 μL. After overnight incubation, the media was removed from each well using the Tecan Freedom EVO robot, and each well was subsequently washed three times with 40 μF of fresh DMEM/HIFBS medium to remove all extracellular promastigotes. After the third wash, 69.2 μF of DMEM/HIFBS medium was added to each well using the Tecan EVO Freedom robot. Drug plates were prepared with the Tecan EVO Freedom using sterile 96 well plates containing twelve duplicate two-fold serial dilutions of each test compound suspended in DMSO. 7.8 μF of diluted test compound was added to the 69.2 μF of media present in each well providing a 10 fold final dilution of compound. The final concentration range tested was 0.5 to 10,000 ng/ml for all assays. The plates were next incubated at 37° C. and 5% CO2 for 96 hours. After 96 hours of incubation, 7.5 μF of a luciferin solution (Caliper Fife Science) diluted to 150 μg/mF was added to each well, and the plates were incubated for 30 minutes at 37° C., in the dark. […]

`CCCn1nnc(C(=O)Nc2ccc3c(c2)B(O)OC3)c1C` [Example 36, N-(1-hydroxy-1,3-dihydrobenzo[c][1,2]oxaborol-6-yl)-5-methyl-1-propyl-1H-1,2,3-triazole-4-carboxamide] and `COCCn1nnc(C(=O)Nc2ccc3c(c2)B(O)OC3)c1C` [Example 40, N-(1-hydroxy-1,3-dihydrobenzo[c][1,2]oxaborol-6-yl)-1-(2-methoxyethyl)-5-methyl-1H-1,2,3-triazole-4-carboxamide] cannot be ordered by IC50: no more than 1 µM for the first, no more than 1 µM for the second.

`CC(C)n1nnc(C(=O)Nc2ccc3c(c2)B(O)OC3)c1C(F)(F)F` [Example 32, N-(1-hydroxy-1,3-dihydrobenzo[c][1,2]oxaborol-6-yl)-1-isopropyl-5-(trifluoromethyl)-1H-1,2,3-triazole-4-carboxamide] and `CCn1nnc(C(=O)Nc2ccc3c(c2)B(O)OC3)c1C(F)(F)F` [Example 28, 1-ethyl-N-(1-hydroxy-1,3-dihydrobenzo[c][1,2]oxaborol-6-yl)-5-(trifluoromethyl)-1H-1,2,3-triazole-4-carboxamide] cannot be ordered by IC50: no more than 1 µM for the first, no more than 1 µM for the second.

`COCCn1nnc(C(=O)Nc2ccc3c(c2)B(O)OC3)c1C(F)(F)F` [Example 33, N-(1-hydroxy-1,3-dihydrobenzo[c][1,2]oxaborol-6-yl)-1-(2-methoxyethyl)-5-(trifluoromethyl)-1H-1,2,3-triazole-4-carboxamide] and `CCCn1nnc(C(=O)Nc2ccc3c(c2)B(O)OC3)c1C(F)(F)F` [Example 31, N-(1-hydroxy-1,3-dihydrobenzo[c][1,2]oxaborol-6-yl)-1-propyl-5-(trifluoromethyl)-1H-1,2,3-triazole-4-carboxamide] cannot be ordered by IC50: no more than 1 µM for the first, no more than 1 µM for the second.

`O=C(Nc1ccc2c(c1)B(O)OC2)c1nnn(CC2CCCC2)c1C(F)(F)F` [Example 35, 1-(cyclopentylmethyl)-N-(1-hydroxy-1,3-dihydrobenzo[c][1,2]oxaborol-6-yl)-5-(trifluoromethyl)-1H-1,2,3-triazole-4-carboxamide] and `O=C(Nc1ccc2c(c1)B(O)OC2)c1nnn(CC2CC2)c1C(F)(F)F` [Example 34, 1-(cyclopropylmethyl)-N-(1-hydroxy-1,3-dihydrobenzo[c][1,2]oxaborol-6-yl)-5-(trifluoromethyl)-1H-1,2,3-triazole-4-carboxamide] cannot be ordered by IC50: no more than 1 µM for the first, no more than 1 µM for the second.

First: O=C(Nc1ccc2c(c1)B(O)OC2)c1nnn(C2CC2)c1C(F)(F)F [Example 29, 1-cyclopropyl-N-(1-hydroxy-1,3-dihydrobenzo[c][1,2]oxaborol-6-yl)-5-(trifluoromethyl)-1H-1,2,3-triazole-4-carboxamide]
Second: O=C(Nc1ccc2c(c1)B(O)OC2)c1nnn(C2CCC2)c1C(F)(F)F [Example 45, 1-cyclobutyl-N-(1-hydroxy-1,3-dihydrobenzo[c][1,2]oxaborol-6-yl)-5-(trifluoromethyl)-1H-1,2,3-triazole-4-carboxamide]
The IC50 of the first is lower: no more than 1 µM for the first, 10 to 50 µM for the second. The first is the more potent here.

`Cc1c(C(=O)Nc2ccc3c(c2)B(O)OC3)nnn1CC1CC1` [Example 43, 1-(cyclopropylmethyl)-N-(1-hydroxy-1,3-dihydrobenzo[c][1,2]oxaborol-6-yl)-5-methyl-1H-1,2,3-triazole-4-carboxamide] and `Cc1c(C(=O)Nc2ccc3c(c2)B(O)OC3)nnn1CC1CCCC1` [Example 44, 1-(cyclopentylmethyl)-N-(1-hydroxy-1,3-dihydrobenzo[c][1,2]oxaborol-6-yl)-5-methyl-1H-1,2,3-triazole-4-carboxamide] fall in the same range of IC50: 10 to 50 µM for the first, 10 to 50 µM for the second.

`Cc1c(C(=O)Nc2ccc3c(c2)B(O)OC3)nnn1C1CC1` [Example 38, 1-cyclopropyl-N-(1-hydroxy-1,3-dihydrobenzo[c][1,2]oxaborol-6-yl)-5-methyl-1H-1,2,3-triazole-4-carboxamide] and `Cc1c(C(=O)Nc2ccc3c(c2)B(O)OC3)nnn1C1CCCC1` [Example 41, 1-cyclopentyl-N-(1-hydroxy-1,3-dihydrobenzo[c][1,2]oxaborol-6-yl)-5-methyl-1H-1,2,3-triazole-4-carboxamide] cannot be ordered by IC50: no more than 1 µM for the first, no more than 1 µM for the second.

`Cc1c(C(=O)Nc2ccc3c(c2)B(O)OC3)nnn1C(C)C` [Example 37, N-(1-hydroxy-1,3-dihydrobenzo[c][1,2]oxaborol-6-yl)-1-isopropyl-5-methyl-1H-1,2,3-triazole-4-carboxamide] and `Cc1c(C(=O)Nc2ccc3c(c2)B(O)OC3)nnn1CC(F)(F)F` [Example 39, N-(1-hydroxy-1,3-dihydrobenzo[c][1,2]oxaborol-6-yl)-5-methyl-1-(2,2,2-trifluoroethyl)-1H-1,2,3-triazole-4-carboxamide] cannot be ordered by IC50: no more than 1 µM for the first, no more than 1 µM for the second.

In the case of `O=C(Nc1ccc2c(c1)B(O)OC2)c1nnn(C2CCCC2)c1C(F)(F)F` [Example 30, 1-cyclopentyl-N-(1-hydroxy-1,3-dihydrobenzo[c][1,2]oxaborol-6-yl)-5-(trifluoromethyl)-1H-1,2,3-triazole-4-carboxamide], the IC50 is reported as no more than 1 µM.

test system: TdTomato-modified T. cruzi (CL strain) in Vero cells; assay: In vitro IC50 measurement of T. cruzi amastigote killing using TdTomato-modified T. cruzi (CL strain); type: cell-based; conditions: Trypanosoma cruzi, 72 h, fluorescence, read-out: IC50: I Org. amastigote Growth T. cruzi CL TdTomato, 3 d
Experimental: Example 112. In Vitro IC50 Measurement of T. cruzi Amastigote Killing Using TdTomato-Modified T. cruzi (CL Strain)
The T. cruzi parasites used in this assay were genetically modified to express Td Tomato fluorescent protein. Vero cells (African green monkey kidney epithelial cells) were harvested from continuous cultures using trypsin and added to the inner 60 wells of 96-well Greiner Bio One plates (plate catalog #655090) at 200 ul/well of […]. Cells were allowed to adhere for 1 h before infection with T. cruzi. T. cruzi for infection were harvested from previously-infected Vero cells, washed, pelleted and resuspended at 5×10^6/mL. 50 uL of parasites were added to each well containing Vero cells. Compounds were prepared from 5 mM stock concentrations in DMSO to final concentrations in wells ranging from 5 uM to 5 nM. Wells were provided for negative controls, lacking compounds. Plates were placed into a 37° C. incubator for 20 min, then a “Day 0” reading was taken on a Synergy H4 plate reader to record initial fluorescence levels, at 544 (excitation) and 612 nm (emission). 96-well plates were placed in Tupperware containers with wet paper towels and incubated at 37° C. incubator for 72 h. After 72 h plates were reread (Day 3 reading) and data analyzed using Excel and/or Graphpad software. Day 0 fluorescence was subtracted from Day 3 to remove input parasite fluorescence. Growth curves are generated and 50% and 90% inhibitory concentrations are determined by nonlinear regression analysis.

`CCCc1c(C(=O)Nc2ccc3c(c2)B(O)OC3)nnn1-c1ccccn1` [Example 50, N-(1-hydroxy-1,3-dihydrobenzo[c][1,2]oxaborol-6-yl)-5-propyl-1-(pyridin-2-yl)-1H-1,2,3-triazole-4-carboxamide] and `CCc1c(C(=O)Nc2ccc3c(c2)B(O)OC3)nnn1-c1ccccn1` [Example 49, 5-ethyl-N-(1-hydroxy-1,3-dihydrobenzo[c][1,2]oxaborol-6-yl)-1-(pyridin-2-yl)-1H-1,2,3-triazole-4-carboxamide] cannot be ordered by IC50: less than 0.6 µM for the first, less than 0.6 µM for the second.
